The source of these data is patent US20260184663A1, “INDENE COMPOUNDS, PHARMACEUTICAL COMPOSITIONS THEREOF, AND THEIR THERAPEUTIC APPLICATIONS” (NucMito Pharmaceuticals co. Ltd., priority 2022, published 2026).

Holding throughout (format): cell-based
Test [1] deals with A431 (epidermoid carcinoma). The test can be described thus: Antiproliferative activity (CCK-8 cell viability), A431. Conditions: Homo sapiens, 72 h; for inhibition at 3.3 µM: A-431, Compound concentration: 3.3 μM; for inhibition at 10 µM: A-431, Compound concentration: 10 μM; for inhibition at 30 µM: A-431, Compound concentration: 30 μM. The gist of the method:
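Cell viability of compound-treated A431 cells was measured with a Cell Counting Kit-8. Each well received 10 μL of CCK-8 after 72 h of compound exposure, followed by 4 h incubation at 37° C. and a 450 nm plate-reader measurement. Percent viability was calculated relative to DMSO controls across replicates.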

A further test deals with SW480 (colon cancer). The test is described as follows: Antiproliferative activity (CCK-8 cell viability), SW480. The following applies: Homo sapiens, 72 h; for inhibition at 3.3 µM: Compound concentration: 3.3 μM; for inhibition at 10 µM: Compound concentration: 10 μM; for inhibition at 30 µM: Compound concentration: 30 μM. The gist of the method:
(§1)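 Cells were seeded at 2,000-5,000/well (HeLa in MEM, HepG2 and SW480 in DMEM, A549 in F-12K, all with 10% FBS) and treated with compound at 3.3, 10 or 30 μM for 72 h at 37° C. CCK-8 was added for 4 h, absorbance was read at 450 nm, and viability was expressed relative to DMSO-treated wells.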

For test [2], the system named is B16F10 (malignant melanoma). The test can be described thus: Antiproliferative activity (CCK-8 cell viability), B16F10. Conditions: Mus musculus, 72 h, read-out: Antiproliferative activity in cancerous cells, B16F10 (inhibition of cell growth); for inhibition at 3.3 µM: B16-F10, Compound concentration: 3.3 μM; for inhibition at 10 µM: B16-F10, Compound concentration: 10 μM; for inhibition at 30 µM: B16-F10, Compound concentration: 30 μM. The procedure, abridged: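 Attached B16F10 cells in 96-well plates were incubated with compound at 37° C for 72 h, followed by 10 μL CCK-8 reagent per well and a further 4 h incubation. A multi-well plate reader measured absorbance at 450 nm. Percent viability across replicates was calculated against DMSO vehicle-treated cells.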

Test [3] deals with A549 (lung adenocarcinoma). The test is described as follows: Antiproliferative activity (CCK-8 cell viability), A549. Conditions: Homo sapiens, 72 h; for inhibition at 3.3 µM: Compound concentration: 3.3 μM; for inhibition at 10 µM: Compound concentration: 10 μM; for inhibition at 30 µM: Compound concentration: 30 μM. The procedure, abridged: as §1
The subject of test [4] is MDA-MB-231 (breast cancer). The test is described as follows: Antiproliferative activity (CCK-8 cell viability), MDA-MB-231. Conditions: Homo sapiens, 72 h, read-out: Antiproliferative activity in cancerous cells, MDA-MB-231 (inhibition of cell growth); for inhibition at 3.3 µM: Compound concentration: 3.3 μM; for inhibition at 10 µM: Compound concentration: 10 μM; for inhibition at 30 µM: Compound concentration: 30 μM. The gist of the method:
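In this CCK-8 viability assay, MDA-MB-231 cells maintained in Dulbecco's modified Eagle's medium containing 10% fetal bovine serum were placed in 96-well plates (2,000-5,000 cells/well) and treated with compound for 72 h at 37° C. A 4 h incubation with 10 μL CCK-8 followed, plates were read at 450 nm, and viability was expressed against DMSO vehicle wells across replicates.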

The subject of another test is HeLa (cervical cancer). The test can be described thus: Antiproliferative activity (CCK-8 cell viability), HeLa. Conditions: Homo sapiens, 72 h, read-out: Antiproliferative activity in cancerous cells, HELA (inhibition of cell growth); for inhibition at 3.3 µM: Compound concentration: 3.3 μM; for inhibition at 10 µM: Compound concentration: 10 μM; for inhibition at 30 µM: Compound concentration: 30 μM. The gist of the method:
as §1

Another test relates to HepG2 (liver cancer). The test is described as follows: Antiproliferative activity (CCK-8 cell viability), HepG2. Conditions: Homo sapiens, 72 h; for inhibition at 3.3 µM: Compound concentration: 3.3 μM; for inhibition at 10 µM: Compound concentration: 10 μM; for inhibition at 30 µM: Compound concentration: 30 μM. The procedure, abridged:
as §1

Setting [5] is: read-out: Antiproliferative activity in cancerous cells, A431 (inhibition of cell growth).
The mark [6] stands for this setting: read-out: Antiproliferative activity in cancerous cells, SW480 (inhibition of cell growth).
The mark [7] stands for this setting: read-out: Antiproliferative activity in cancerous cells, A549 (inhibition of cell growth).
Setting [8] is: read-out: Antiproliferative activity in cancerous cells, HepG2 (inhibition of cell growth).

Molecules are shown by their SMILES. Where two headings read alike, the source gives them in different places.

In the case of `COc1ccc2c(c1)C(CC(=O)O)=C(C)/C2=C/c1ccc(COc2ccc(F)cc2)cc1` [B54, (Z)-2-(1-(4-((4-Fluorophenoxy)methyl)benzylidene)-5-methoxy-2-methyl-1H-inden-3-yl)acetic acid], the inhibition at 3.3 µM in test [1] (setting [5]) is 30 to 50%; in the test on SW480 (colon cancer) (setting [6]), under 30%; in test [2] it was at least 50%; in test [3] (setting [7]), under 30%; in test [4], 30 to 50%; in the test with HeLa (cervical cancer), at least 50%. In addition, the inhibition at 3.3 µM with HepG2 (liver cancer) (setting [8]) is under 30%. Further, the inhibition at 10 µM was 30 to 50% in test [1] (setting [5]); under 30% in the test on SW480 (colon cancer) (setting [6]); at least 50% in test [2]; 30 to 50% in test [3] (setting [7]); at least 50% in test [4]; at least 50% with HeLa (cervical cancer). Also, the inhibition at 10 µM with HepG2 (liver cancer) (setting [8]) was under 30%. Also, the inhibition at 30 µM is 30 to 50% in test [1] (read-out: Antiproliferative activity in cancerous cells, A431); under 30% with SW480 (colon cancer) (read-out: Antiproliferative activity in cancerous cells, SW480); 30 to 50% in test [3] (read-out: Antiproliferative activity in cancerous cells, A549); 30 to 50% with HepG2 (liver cancer) (read-out: Antiproliferative activity in cancerous cells, HepG2).
As for `CC1=C(CC(=O)O)c2cc(F)ccc2/C1=C\c1ccc(OC2CCNCC2)cc1` [C202, (Z)-2-(5-Fluoro-2-methyl-1-(4-(piperidin-4-yloxy)benzylidene)-1H-inden-3-yl)-acetic acid], the inhibition at 3.3 µM is at least 50% in test [1] (setting [5]); under 30% in the test with SW480 (colon cancer) (setting [6]); under 30% in test [2]; under 30% in test [3] (setting [7]); under 30% in test [4]; under 30% in the test with HeLa (cervical cancer). Further, the inhibition at 3.3 µM with HepG2 (liver cancer) (setting [8]) is under 30%. Moreover, the inhibition at 10 µM in test [1] (setting [5]) is at least 50%; in the test with SW480 (colon cancer) (setting [6]), under 30%; in test [2], under 30%; in test [3] (setting [7]) it was under 30%; in test [4], under 30%; in the test on HeLa (cervical cancer), 30 to 50%. Further, the inhibition at 10 µM in the test with HepG2 (liver cancer) (setting [8]) is under 30%. Besides, the inhibition at 30 µM in test [1] (setting [5]) is at least 50%; in the test on SW480 (colon cancer) (setting [6]), under 30%; in test [2], at least 50%; in test [3] (setting [7]) it was 30 to 50%; in test [4], at least 50%; in the test on HeLa (cervical cancer), at least 50%. Further, the inhibition at 30 µM with HepG2 (liver cancer) (setting [8]) was at least 50%.
`CCOCc1ccc(/C=C2/C(C)=C(CC(=O)O)c3cc(F)ccc32)cc1` [D10, (Z)-2-(1-(4-(Ethoxymethyl)benzylidene)-5-fluoro-2-methyl-1H-inden-3-yl)acetic acid]: the inhibition at 3.3 µM was at least 50% in test [1] (setting [5]); 30 to 50% in the test on SW480 (colon cancer) (setting [6]); 30 to 50% in test [2]; 30 to 50% in test [3] (setting [7]); under 30% in test [4]; 30 to 50% with HeLa (cervical cancer). Moreover, the inhibition at 3.3 µM in the test with HepG2 (liver cancer) (setting [8]) was under 30%. The inhibition at 10 µM in test [1] (setting [5]) is at least 50%; in the test with SW480 (colon cancer) (setting [6]) it was 30 to 50%; in test [2], 30 to 50%; in test [3] (setting [7]) it was 30 to 50%; in test [4], under 30%; in the test with HeLa (cervical cancer), at least 50%. Further, in the test with HepG2 (liver cancer) (setting [8]), the inhibition at 10 µM was under 30%. The inhibition at 30 µM in test [1] (setting [5]) was at least 50%; in the test on SW480 (colon cancer) (setting [6]) it was 30 to 50%; in test [2], 30 to 50%; in test [3] (setting [7]), 30 to 50%; in test [4], 30 to 50%; in the test on HeLa (cervical cancer), at least 50%. Besides, in the test on HepG2 (liver cancer) (setting [8]), the inhibition at 30 µM is 30 to 50%.
Take `COc1ccc(CCCc2ccc(/C=C3/C(C)=C(CC(=O)O)c4cc(Br)ccc43)cc2)cc1` [B128, (Z)-2-(5-Bromo-1-(4-(3-(4-methoxyphenyl)propyl)benzylidene)-2-methyl-1H-inden-3-yl)acetic acid]: the inhibition at 3.3 µM (in test [1] (setting [5]); with SW480 (colon cancer) (setting [6]); in test [2]; in test [3] (setting [7]); in test [4]; in the test with HeLa (cervical cancer)) was at least 50% each time. Also, the inhibition at 3.3 µM with HepG2 (liver cancer) (setting [8]) was at least 50%. In addition, the inhibition at 10 µM (in test [1] (setting [5]); in the test with SW480 (colon cancer) (setting [6]); in test [2]; in test [3] (setting [7]); in test [4]; in the test with HeLa (cervical cancer)) was at least 50% in each case. Moreover, the inhibition at 10 µM with HepG2 (liver cancer) (setting [8]) is at least 50%.
In the case of `CC1=C(CC(=O)O)c2cc(F)c(F)cc2/C1=C/c1ccc(Oc2ccc(F)cc2)cc1` [E23, (E)-2-(5,6-Difluoro-1-(4-(4-fluorophenoxy)benzylidene)-2-methyl-1H-inden-3-yl)acetic acid], the inhibition at 3.3 µM is 30 to 50% in test [1] (setting [5]); under 30% in the test with SW480 (colon cancer) (setting [6]); under 30% in test [2]; under 30% in test [3] (setting [7]); at least 50% in test [4]; 30 to 50% with HeLa (cervical cancer). The inhibition at 3.3 µM in the test with HepG2 (liver cancer) (setting [8]) was under 30%. Also, the inhibition at 10 µM is at least 50% in test [1] (setting [5]); at least 50% in the test with SW480 (colon cancer) (setting [6]); at least 50% in test [2]; under 30% in test [3] (setting [7]); at least 50% in test [4]; at least 50% in the test on HeLa (cervical cancer). Moreover, the inhibition at 10 µM in the test on HepG2 (liver cancer) (setting [8]) is under 30%. In addition, the inhibition at 30 µM (in test [1] (setting [5]); in the test on SW480 (colon cancer) (setting [6]); in test [2]; in test [3] (setting [7]); in test [4]; in the test on HeLa (cervical cancer)) was at least 50% in each case. The inhibition at 30 µM with HepG2 (liver cancer) (setting [8]) is at least 50%.
For `CC1=C(CC(=O)O)c2cc(F)ccc2/C1=C\c1ccc(CCCc2ccc(O)cc2)cc1` [B129, (Z)-2-(5-Fluoro-1-(4-(3-(4-hydroxyphenyl)propyl)benzylidene)-2-methyl-1H-inden-3-yl)acetic acid], the inhibition at 3.3 µM is under 30% in test [1] (setting [5]); under 30% in the test on SW480 (colon cancer) (setting [6]); at least 50% in test [2]; 30 to 50% in test [3] (setting [7]); at least 50% in test [4]; under 30% in the test with HeLa (cervical cancer). The inhibition at 3.3 µM in the test with HepG2 (liver cancer) (setting [8]) was under 30%. The inhibition at 10 µM is at least 50% in test [1] (setting [5]); under 30% in the test with SW480 (colon cancer) (setting [6]); at least 50% in test [2]; at least 50% in test [3] (setting [7]); at least 50% in test [4]; at least 50% in the test on HeLa (cervical cancer). In addition, the inhibition at 10 µM in the test with HepG2 (liver cancer) (setting [8]) was at least 50%.
